{"source": "patent US20210346459A1", "about": "“Application of Dalargin for the prevention of VRIs and prevention of the development of complications during VRIs” (priority 2020, published 2021)", "key": {"[1]": {"test": "Effect of low pH acetate buffer on antiviral and immunotropic activity", "settings": "low pH acetate-based buffer solution; nose, nasopharynx, oropharynx, oral cavity or sublingual", "from_the_text": "The preferred type of buffer salts is acetate buffer, which contains sodium acetate and acetic acid, with a preferred pH value of 4.0-5.5. Citrate buffer can also be used. […] Additionally, a physiologically active buffer on the basis of sodium hydrogen phosphate dihydrate and sodium dihydrogen phosphate dihydrate can be used; however, this buffer is not sufficiently efficient in the pH range from 4.0 to 5.5 in terms of its buffer capacity."}, "[2]": {"settings": "in vivo; cited from earlier work"}, "[3]": {"test_system": "human adenovirus 5", "settings": "for Virus titer Ad5 (adenovirus): virus control 4.5"}, "[4]": {"test": "Clinical testing of inhalation: cough and shortness of breath", "type": "in vivo, human", "from_the_text": "Mu and delta receptors are found in the cough centre of the medulla, and systemic application of […] of these receptors inhibits the cough reflex. This usually also affects other organs and zones of the brain that contain opioid receptors. Additionally, since receptors of this group are found in peripheral neural pathways, Dalargin can also affect the conduction of signals along these neural pathways. Dalargin inhalation mostly produces local effects of short-lived metabolites of the peptide on peripheral opioid receptors, which manifests itself in reduced response of receptor cells to stimulation and reduced intensity of the signal transmitted to the cough centre. […] A certain local analgesic effect also improves the overall condition of the patient. […] This, in turn, alleviates the irritation of the respiratory tract, reduces the loss of the inhaled product due to coughing and improves the patients' quality of life.\nShortness of breath is one of the most common symptoms of VRIs. The patient is often unable to perform the most basic actions without experiencing shortness of breath, panting, and a sensation of lacking air. Descriptions of various methods of the treatment of shortness of breath report positive effects of systemic administration of certain opioid receptor agonists. […] Systemically administered opioids are also recommended for treating shortness of breath in such patients, but side effects may limit their use. Despite the positive effect, uses of such therapies are severely limited due to typical side effects and restrictions on the sales of opioid drugs. Inhalation of Dalargin is additionally associated with improved quality of respiration. […] Unlike classical opioids, these metabolites are short-lived and only act locally, in the zone where the inhaled aerosol is deposited in the lungs, predominantly in the larynx, bronchi and trachea."}, "[5]": {"test_system": "influenza virus A", "type": "in vivo, human"}, "[6]": {"settings": "administered by injection or infusion; cited from earlier work"}, "[7]": {"test_system": "influenza", "type": "in vivo, human", "settings": "Example 9, 4 relatives; 0.02% solution inhaled once a day, 1 mg/day; 7 days"}, "[8]": {"test_system": "influenza virus A/California/04/2009", "type": "in vivo, mice"}, "[9]": {"test": "in vitro", "settings": "African green monkey"}, "[10]": {"test": "in vitro", "settings": "dog"}, "[11]": {"test_system": "influenza virus A/Puerto Rico/8/34 (H1N1)", "settings": "for Virus titer PR8 (influenza virus): virus control 5.5"}, "[12]": {"settings": "Example 10, patient V, A/California/07/2009 (H1N1), 0.1% solution inhaled twice a day, 4 mg/day, with Oseltamivir"}, "[13]": {"settings": "Group 4: nasally once a day 0.2 mg/kg, concentration 0.08%"}, "[14]": {"settings": "Group 4: nasally once a day 0.2 mg/kg, concentration 0.08%, 30 animals"}, "[15]": {"settings": "Group 5: nasally and posterior pharyngeal wall (PS) once daily 0.5 mg/kg, concentration 0.1%"}, "[16]": {"settings": "Group 5: nasally and posterior pharyngeal wall (PS) once daily 0.5 mg/kg, concentration 0.1%, 30 animals"}, "[17]": {"settings": "Group 6: inhalation of 1% solution 40 min once a day, 0.5 mg/kg"}, "[18]": {"settings": "Group 6: inhalation of 1% solution 40 min once a day, 0.5 mg/kg, 30 animals"}, "[19]": {"settings": "Group 7: inhalation of 3% solution 45 min once a day, 1.74 mg/kg"}, "[20]": {"settings": "Group 7: inhalation of 3% solution 45 min once a day, 1.74 mg/kg, 30 animals"}, "[21]": {"settings": "Group 9: inhalation of 3% solution 45 min twice a day, prophylactic only"}, "[22]": {"settings": "Group 9: inhalation of 3% solution 45 min twice a day, prophylactic only, 30 animals"}, "[23]": {"settings": "Group 10: nasally + pharyngeal spray (PS) 0.5 mg/kg once a day, prophylactic only"}, "[24]": {"settings": "Group 10: nasally + pharyngeal spray (PS) 0.5 mg/kg once a day, prophylactic only, 30 animals"}}, "note": "Read-outs that look alike come from different tables or passages of the source. Marks after values point to notes of the source that are not given here. Square brackets hold non-standard residues; d marks the D form. Peptide text beside a SMILES is read from it."}
{"smiles": "CC(C)C[C@H](NC(=O)[C@H](Cc1ccccc1)NC(=O)CNC(=O)[C@@H](C)NC(=O)[C@@H](N)Cc1ccc(O)cc1)C(=O)N[C@@H](CCCNC(=N)N)C(=O)O", "note": "[Dalargin, tyrosyl-D-alanyl-glycyl-phenylalanyl-leucyl-arginine diacetate] (H-Y[dA]GFLR-OH)", "values": [{"measurement": "Fold higher specific antiviral and immunotropic activity", "setting": "[1]", "result": "2-4 times"}, {"measurement": "LD50", "setting": "[2]", "result": 2500, "unit": "mg/kg"}, {"measurement": "IC50", "setting": "[3]", "result": 2.5, "unit": "µg/mL"}, {"measurement": "Virus titer Ad5 (adenovirus)", "setting": "[3]; 0.4 μg/mL", "result": 4.5, "unit": "lg TCID50/0.1 mL"}, {"measurement": "Virus titer Ad5 (adenovirus)", "setting": "[3]; 1.1 μg/mL", "result": 4.5, "unit": "lg TCID50/0.1 mL"}, {"measurement": "Virus titer Ad5 (adenovirus)", "setting": "[3]; 3.3 μg/mL", "result": 4.0, "unit": "lg TCID50/0.1 mL"}, {"measurement": "Virus titer Ad5 (adenovirus)", "setting": "[3]; 10 μg/mL", "result": 4.0, "unit": "lg TCID50/0.1 mL"}, {"measurement": "Virus titer Ad5 (adenovirus)", "setting": "[3]; 30 μg/mL", "result": 3.5, "unit": "lg TCID50/0.1 mL"}, {"measurement": "SI", "setting": "[3]; CC50/IC50, Ad5 (adenovirus)", "result": 12}, {"measurement": "Antiviral properties (in words)", "setting": "[3]; adenovirus, Vero", "result": "dose-dependent reduction of the infectious activity"}, {"measurement": "Duration of reduced coughing severity", "setting": "[4]", "result": "2 to 4", "unit": "h"}, {"measurement": "Cough reported by patients", "setting": "[4]; clinical testing", "result": "alleviation or elimination of cough"}, {"measurement": "Shortness of breath", "setting": "[4]; investigational clinical use", "result": "significantly reduced shortness of breath"}, {"measurement": "Complete resolution of symptoms, day after start of therapy", "setting": "[5]; Example 8, patient K, influenza pneumonia A/Aichi/2/68 (H3N2), 0.02% solution inhaled twice a day, 1 mg/day, with Oseltamivir 75 mg twice a day", "result": 7, "unit": "days"}, {"measurement": "Duration of fever", "setting": "[5]; [12]", "result": 3, "unit": "days"}, {"measurement": "Duration of intoxication symptoms", "setting": "[5]; [12]", "result": 2, "unit": "days"}, {"measurement": "Duration of the disease as a whole (complete resolution of symptoms)", "setting": "[5]; [12]", "result": 5, "unit": "days"}, {"measurement": "Mean elimination half-life", "setting": "[6]", "result": 12, "unit": "min"}, {"measurement": "Signs or symptoms of influenza in household contacts", "setting": "[7]", "result": "None of the relatives of patient V who were in contact with them exhibited catarrhal signs, hyperthermia or other signs or symptoms of influenza"}, {"measurement": "Mortality, %", "setting": "[8]; [13]", "result": 56.67, "unit": "%"}, {"measurement": "Protective index, %", "setting": "[8]; [13]", "result": 41.38, "unit": "%"}, {"measurement": "Mortality by day 5", "setting": "[8]; [14]", "result": 2}, {"measurement": "Mortality by day 6", "setting": "[8]; [14]", "result": 4}, {"measurement": "Mortality by day 7", "setting": "[8]; [14]", "result": 9}, {"measurement": "Mortality by day 9", "setting": "[8]; [14]", "result": 1}, {"measurement": "Mortality by day 11", "setting": "[8]; [14]", "result": 1}, {"measurement": "Residue", "setting": "[8]; [14]", "result": 13}, {"measurement": "Mortality, %", "setting": "[8]; [15]", "result": 40.00, "unit": "%"}, {"measurement": "Protective index, %", "setting": "[8]; [15]", "result": 58.62, "unit": "%"}, {"measurement": "Mortality by day 6", "setting": "[8]; [16]", "result": 1}, {"measurement": "Mortality by day 7", "setting": "[8]; [16]", "result": 2}, {"measurement": "Mortality by day 8", "setting": "[8]; [16]", "result": 3}, {"measurement": "Mortality by day 9", "setting": "[8]; [16]", "result": 5}, {"measurement": "Mortality by day 10", "setting": "[8]; [16]", "result": 1}, {"measurement": "Residue", "setting": "[8]; [16]", "result": 18}, {"measurement": "Mortality, %", "setting": "[8]; [17]", "result": 6.67, "unit": "%**"}, {"measurement": "Protective index, %", "setting": "[8]; [17]", "result": 93.10, "unit": "%"}, {"measurement": "Mortality by day 7", "setting": "[8]; [18]", "result": 1}, {"measurement": "Mortality by day 8", "setting": "[8]; [18]", "result": 1}, {"measurement": "Residue", "setting": "[8]; [18]", "result": 28}, {"measurement": "Mortality, %", "setting": "[8]; [19]", "result": 10.00, "unit": "%**"}, {"measurement": "Protective index, %", "setting": "[8]; [19]", "result": 89.66, "unit": "%"}, {"measurement": "Mortality by day 7", "setting": "[8]; [20]", "result": 1}, {"measurement": "Mortality by day 8", "setting": "[8]; [20]", "result": 1}, {"measurement": "Mortality by day 9", "setting": "[8]; [20]", "result": 1}, {"measurement": "Residue", "setting": "[8]; [20]", "result": 27}, {"measurement": "Mortality, %", "setting": "[8]; [21]", "result": 30.00, "unit": "%"}, {"measurement": "Protective index, %", "setting": "[8]; [21]", "result": 68.97, "unit": "%"}, {"measurement": "Mortality by day 6", "setting": "[8]; [22]", "result": 2}, {"measurement": "Mortality by day 7", "setting": "[8]; [22]", "result": 3}, {"measurement": "Mortality by day 8", "setting": "[8]; [22]", "result": 2}, {"measurement": "Mortality by day 9", "setting": "[8]; [22]", "result": 2}, {"measurement": "Residue", "setting": "[8]; [22]", "result": 21}, {"measurement": "Mortality, %", "setting": "[8]; [23]", "result": 46.67, "unit": "%"}, {"measurement": "Protective index, %", "setting": "[8]; [23]", "result": 51.72, "unit": "%"}, {"measurement": "Mortality by day 5", "setting": "[8]; [24]", "result": 2}, {"measurement": "Mortality by day 6", "setting": "[8]; [24]", "result": 4}, {"measurement": "Mortality by day 7", "setting": "[8]; [24]", "result": 2}, {"measurement": "Mortality by day 8", "setting": "[8]; [24]", "result": 3}, {"measurement": "Mortality by day 9", "setting": "[8]; [24]", "result": 2}, {"measurement": "Mortality by day 10", "setting": "[8]; [24]", "result": 1}, {"measurement": "Residue", "setting": "[8]; [24]", "result": 16}, {"measurement": "Efficacy compared with other antiviral drugs (Ingavirin, Arbidol)", "setting": "[8]; administered by inhalation, prevention of influenza pneumonia", "result": "superior to other antiviral drugs"}, {"measurement": "Protective effect against infection, share of animals", "setting": "[8]; preventive administration, depending on the route of administration", "result": "50-70%"}, {"measurement": "CC50", "setting": "[9]", "result": "≥ 30", "unit": "µg/mL"}, {"measurement": "CC50", "setting": "[10]", "result": "≥ 30", "unit": "µg/mL"}, {"measurement": "Virus titer PR8 (influenza virus)", "setting": "[11]; 0.4 μg/mL", "result": 5.5, "unit": "lg TCID50/0.1 mL"}, {"measurement": "Virus titer PR8 (influenza virus)", "setting": "[11]; 1.1 μg/mL", "result": 5.0, "unit": "lg TCID50/0.1 mL"}, {"measurement": "Virus titer PR8 (influenza virus)", "setting": "[11]; 3.3 μg/mL", "result": 5.0, "unit": "lg TCID50/0.1 mL"}, {"measurement": "Virus titer PR8 (influenza virus)", "setting": "[11]; 10 μg/mL", "result": 4.5, "unit": "lg TCID50/0.1 mL"}, {"measurement": "Virus titer PR8 (influenza virus)", "setting": "[11]; 30 μg/mL", "result": 4.0, "unit": "lg TCID50/0.1 mL"}, {"measurement": "SI", "setting": "[11]; CC50/IC50, PR8 (influenza virus)", "result": ">37.5"}, {"measurement": "IC50", "setting": "[11]; PR8 (influenza virus), MDCK", "result": 0.8, "unit": "µg/mL"}, {"measurement": "Antiviral properties (in words)", "setting": "[11]; influenza virus, MDCK", "result": "dose-dependent reduction of the infectious activity"}]}
